Data: patent US20190119200A1, “TERTIARY AMIDES AND METHOD OF USE” (AbbVie Inc., priority 2016, published 2019)

Tests used:
Assay type in all cases: cell-based
LPAR1 [1] = target: T1, LPAR1 (Homo sapiens, UniProt Q92633); assay: LPAR1 FLIPR Assay; settings: U2OS cells stably expressing LPAR1, LPA (EC80), Calcium 6 FLIPR dye; for Emax: read-out: Maximum Inhibition
T1 construct: host or cells: U2OS
In short: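 U2OS cells stably expressing LPAR1 were loaded with Calcium 6 dye for 2 h at 37° C, preincubated 3 min with compound (11-point 3-fold series), then stimulated with LPA at EC80. Fluorescence at 515-575 nm was recorded by FLIPR; IC50 came from four-parameter logistic fits of ratio data.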

LPAR1 [2] = target: T1, LPAR1; assay: IP-One HTRF Assay; settings: U2OS cells stably expressing LPAR1, LPA stimulation, IP-One Tb HTRF kit; for Emax: read-out: Maximum Inhibition
Method: U2OS cells stably expressing LPAR1 (Life Technologies #K1519A) were plated at 20000 cells/well in growth medium (McCoy's 5A(Life Technologies #16600-082)) with 10% dFBS (Life Technologies #26400-036), 0.1 mM non-essential amino acids, 25 mM HEPES, 1 mM sodium pyruvate, 1% penicillin/streptomycin, 50 μg/mL hygromycin, and 100 μg/mL Geneticin® in tissue culture treated 384-well white plates (Greiner #781080) in humidified 5% CO2 at 37° C. overnight. On the day of the assay, culture medium was replaced with 30 μL/well of McCoy's 5A with 0.1% BSA. Cells were incubated in humidified 5% CO2 at 37° C. for 3 more hours. Compounds were 3-fold serial diluted from 2 mM for 11-points using dimethyl sulfoxide. 1 μL of compound in DMSO was diluted in 50 μL stimulation buffer from an IP-One Tb HTRF kit (Cisbio #62IPAPEB) immediately before assay. 15 μL/well of 1.33× compound in stimulation buffer was added to cells after removal of culture medium. After 20 minutes of incubation at 37° C., 5 μL/well of 8 μM LPA diluted in stimulation buffer with 0.1% fatty acid free BSA was added to cells. […]. To EC100 wells were added 4×20 μM LPA. To the cells were added 5 μL/well IP1-d2 conjugate and 5 μLwell IP1-K antibody after 2 hours of incubation at 37° C. Cells were incubated at room temperature for 1 hour (protected from light). The plate was then read at 665 nm and 615 nm using an EnVision® Multilabel Plate Reader. IC50 values were calculated from curve fits of the ratio data using a four-parameter logistic Hill equation (Assay Explorer 3.3 Client).

[3] = test system: LPA-induced MCP-1 in NRK-49F cells; assay: LPA-induced MCP-1 AlphaLISA assay; settings: Rattus norvegicus, final LPA 10 μM, 7 hours; for Emax: read-out: Maximum Inhibition
In short: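 NRK-49F rat fibroblasts, serum-starved overnight, pretreated with compound for 30 min at 37 °C (1% DMSO final), then stimulated with 10 μM LPA final. MCP-1 in the supernatant was measured by mouse/rat CCL2 AlphaLISA. IC50 values came from four-parameter logistic fits of the ratio data.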

T1 sequence (Q92633 whole entry): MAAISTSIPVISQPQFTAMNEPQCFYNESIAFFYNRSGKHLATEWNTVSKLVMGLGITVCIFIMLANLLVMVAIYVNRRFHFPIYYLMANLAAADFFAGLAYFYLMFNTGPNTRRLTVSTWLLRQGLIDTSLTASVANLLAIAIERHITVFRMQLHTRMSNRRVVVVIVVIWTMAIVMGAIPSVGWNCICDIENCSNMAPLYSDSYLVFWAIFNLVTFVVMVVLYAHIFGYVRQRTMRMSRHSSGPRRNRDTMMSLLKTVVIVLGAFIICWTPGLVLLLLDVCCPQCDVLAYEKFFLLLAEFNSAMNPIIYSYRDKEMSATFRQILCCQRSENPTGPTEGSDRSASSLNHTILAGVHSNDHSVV

Compound | IC50 (LPAR1 [1]) | Emax (LPAR1 [1]) | IC50 (LPAR1 [2]) | Emax (LPAR1 [2]) | IC50 [3] | Emax [3]
COc1cc(C(=O)N(CCCc2c(F)cccc2F)CCOCC(=O)O)cc(OC)c1C [Example 128, (2-{[3-(2,6-difluorophenyl)propyl](3,5-dimethoxy-4-methylbenzoyl)amino}ethoxy)acetic Acid] | 23 nM | 89% | 1800 nM | 101% | 1080 nM | 78%
COc1cc(C(=O)N(CCCCC(=O)O)CCCc2ccc(C)s2)cc(OC)c1C [Example 41, 5-{(3,5-dimethoxy-4-methylbenzoyl)[3-(5-methylthiophen-2-yl)propyl]amino}pentanoic Acid] | 22 nM | 97% | 191 nM | 100% | 335 nM | 88%
COc1cc(C(=O)N(CCCc2ccccc2)CCOCCC(=O)O)cc(OC)c1C [Example 56, 3-{2-[(3,5-dimethoxy-4-methylbenzoyl)(3-phenylpropyl)amino]ethoxy}propanoic Acid] | 21 nM | 95% | 424 nM | 100% | 1240 nM | 79%
CNS(=O)(=O)NC(=O)CCCCN(CCCc1ccccc1)C(=O)C1(c2ccc(OC)cc2)CC1 [Example 73, 1-(4-methoxyphenyl)-N-{5-[(methylsulfamoyl)amino]-5-oxopentyl}-N-(3-phenylpropyl)cyclopropane-1-carboxamide] | 60 nM | 65% | > 30000 nM | 44% | 5160 nM | 79%
COc1cc(C(=O)N(CCCc2ccccc2)CCSCC2(C(=O)O)CC2)cc(OC)c1C [Example 61, 1-[({2-[(3,5-dimethoxy-4-methylbenzoyl)(3-phenylpropyl)amino]ethyl}sulfanyl)methyl]cyclopropane-1-carboxylic Acid] | 20 nM | 98% | 114 nM | 85% | 147 nM | 92%
COc1cc(C(=O)N(CCCCCC(=O)O)CCCc2ccccc2)cc(OC)c1C [Example 5, 6-[(3,5-dimethoxy-4-methylbenzoyl)(3-phenylpropyl)amino]hexanoic Acid] | 27 nM | 97% | 313 nM | 105% | 286 nM | 97%
COc1cc(C(=O)N(CCCc2ccccc2)CCOCC2(C(=O)O)CC2)cc(OC)c1C [Example 59, 1-({2-[(3,5-dimethoxy-4-methylbenzoyl)(3-phenylpropyl)amino]ethoxy}methyl)cyclopropane-1-carboxylic Acid] | 23 nM | 100% | 449 nM | 88% | 127 nM | 93%
CCOP(=O)(O)CCCCN(CCCc1ccccc1)C(=O)c1cc(OC)cc(OC)c1 [Example 76, ethyl hydrogen {4-[(3,5-dimethoxybenzoyl)(3-phenylpropyl)amino]butyl}phosphonate] | 48 nM | 76% | 5830 nM | 65% | > 10000 nM | 36%
COc1cc(OC)cc(C(=O)N(CCCc2ccccc2)CCCC(C)(C)C(=O)O)c1 [Example 108, 5-[(3,5-dimethoxybenzoyl)(3-phenylpropyl)amino]-2,2-dimethylpentanoic Acid] | 26 nM | 94% | 230 nM | 82% | 668 nM | 83%
COc1cc(C(=O)N(CCCC(=O)O)CCCc2ccccc2)cc(OC)c1C [Example 69, 4-[(3,5-dimethoxy-4-methylbenzoyl)(3-phenylpropyl)amino]butanoic Acid] | > 30000 nM | 38% | 3820 nM | 85% | 1660 nM | 62%
COc1cc(C(=O)N(CCCc2ccccc2)CCOC(C)(C)C(=O)O)cc(OC)c1C [Example 55, 2-{2-[(3,5-dimethoxy-4-methylbenzoyl)(3-phenylpropyl)amino]ethoxy}-2-methylpropanoic Acid] | 22 nM | 100% | 89 nM | 98% | 111 nM | 93%
COc1cc(OC)cc(C(=O)N(CCCCP(=O)(O)O)CCCc2ccccc2)c1 [Example 75, {4-[(3,5-dimethoxybenzoyl)(3-phenylpropyl)amino]butyl}phosphonic Acid] | 20 nM | 72% | 1070 nM | 77% | 3250 nM | 65%
COc1cc(C(=O)N(CCCCC(=O)NS(=O)(=O)c2ccccn2)CCCc2ccccc2)cc(OC)c1C [Example 141, 3,5-dimethoxy-4-methyl-N-{5-oxo-5-[(pyridine-2-sulfonyl)amino]pentyl}-N-(3-phenylpropyl)benzamide] | 28 nM | 94% | 200 nM | 76% | 143 nM | 84%
COc1cc(C(=O)N(CCCc2ccccc2)CC(=O)NC2(C(=O)O)Cc3ccccc3C2)cc(OC)c1C [Example 1, 2-{[N-(3,5-dimethoxy-4-methylbenzoyl)-N-(3-phenylpropyl)glycyl]amino}-2,3-dihydro-1H-indene-2-carboxylic Acid] | 45 nM | 74% | 1210 nM | 75% | 1540 nM | 66%
COc1cc(C(=O)N(CCCc2ccccc2)CCCC(C)C(=O)O)cc(OC)c1C (stereo not drawn) [Example 54, 5-[(3,5-dimethoxy-4-methylbenzoyl)(3-phenylpropyl)amino]-2-methylpentanoic Acid] | 15 nM | 100% | 22 nM | 91% | 55 nM | 96%
COc1cc(OC)cc(C(=O)N(CCCc2ccccc2)CCCC(C)C(=O)O)c1 (stereo not drawn) [Example 98, 5-[(3,5-dimethoxybenzoyl)(3-phenylpropyl)amino]-2-methylpentanoic Acid] | 29 nM | 87% | 836 nM | 76% | 4580 nM | 66%
